From PMC3698094, “Similarly Potent Inhibition of Adenylyl Cyclase by P-Site Inhibitors in Hearts from Wild Type and AC5 Knockout Mice” (PLoS ONE, 2013)

Experiments:
Assay in all cases: radiochemical AC activity assay, […]cAMP from [α-32P]ATP, Sf9 membranes
Assay type in all cases: biochemical
[1] = target: T1, AC2 (recombinant) (Rattus norvegicus, UniProt P26769); conditions: read-out: Recombinant ACs / AC2
T1 construct: gene Adcy2; recombinant membranous AC2 expressed by baculovirus in Sf9 cells; crude Sf9 membranes

[2] = target: T2, AC5 (recombinant) (Canis lupus, UniProt P30803); conditions: read-out: Recombinant ACs / AC5
T2 construct: gene ADCY5; recombinant membranous AC5 expressed by baculovirus in Sf9 cells; crude Sf9 membranes

[3] = target: T3, AC1 (recombinant) (Bos taurus, UniProt P19754); conditions: read-out: Recombinant ACs / AC1
T3 construct: gene ADCY1; recombinant membranous AC1 expressed by baculovirus in Sf9 cells; crude Sf9 membranes

[4] = target: T3, AC1 (recombinant); conditions: read-out: RecombinantACs / AC1
[5] = target: T1, AC2 (recombinant); conditions: read-out: RecombinantACs / AC2
[6] = target: T2, AC5 (recombinant); conditions: read-out: RecombinantACs / AC5

T2 sequence (P30803 whole entry): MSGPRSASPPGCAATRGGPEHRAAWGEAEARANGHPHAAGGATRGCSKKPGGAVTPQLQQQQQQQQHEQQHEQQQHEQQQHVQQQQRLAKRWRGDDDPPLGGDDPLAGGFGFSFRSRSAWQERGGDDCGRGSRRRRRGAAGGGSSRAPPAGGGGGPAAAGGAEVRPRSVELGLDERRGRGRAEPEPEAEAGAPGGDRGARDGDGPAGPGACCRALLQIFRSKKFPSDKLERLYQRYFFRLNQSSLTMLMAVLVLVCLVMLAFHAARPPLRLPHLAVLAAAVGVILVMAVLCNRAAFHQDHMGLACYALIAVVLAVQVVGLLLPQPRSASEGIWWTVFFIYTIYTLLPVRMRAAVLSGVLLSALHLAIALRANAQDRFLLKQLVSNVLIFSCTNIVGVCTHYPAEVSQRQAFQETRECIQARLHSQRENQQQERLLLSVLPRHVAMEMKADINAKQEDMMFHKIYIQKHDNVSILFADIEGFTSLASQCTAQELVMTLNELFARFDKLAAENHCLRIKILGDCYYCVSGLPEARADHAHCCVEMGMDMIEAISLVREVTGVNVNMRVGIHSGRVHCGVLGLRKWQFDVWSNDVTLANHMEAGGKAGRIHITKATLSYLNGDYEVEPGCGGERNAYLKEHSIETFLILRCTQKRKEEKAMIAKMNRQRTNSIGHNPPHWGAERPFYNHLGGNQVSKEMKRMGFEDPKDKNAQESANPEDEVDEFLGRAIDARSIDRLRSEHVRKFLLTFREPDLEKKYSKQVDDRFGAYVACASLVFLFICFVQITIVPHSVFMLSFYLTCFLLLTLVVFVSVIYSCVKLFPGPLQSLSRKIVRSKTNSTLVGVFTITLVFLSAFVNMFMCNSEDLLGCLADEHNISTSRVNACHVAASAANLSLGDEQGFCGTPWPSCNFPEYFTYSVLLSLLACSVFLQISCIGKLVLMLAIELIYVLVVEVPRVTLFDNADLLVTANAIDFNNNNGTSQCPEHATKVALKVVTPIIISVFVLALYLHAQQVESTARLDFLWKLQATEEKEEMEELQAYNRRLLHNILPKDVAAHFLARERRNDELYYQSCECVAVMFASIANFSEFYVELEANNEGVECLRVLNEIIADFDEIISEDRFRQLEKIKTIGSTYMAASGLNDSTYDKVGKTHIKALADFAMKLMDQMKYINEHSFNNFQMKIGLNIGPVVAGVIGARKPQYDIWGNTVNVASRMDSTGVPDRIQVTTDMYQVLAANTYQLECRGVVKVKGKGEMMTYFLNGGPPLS
T3 sequence (P19754 whole entry): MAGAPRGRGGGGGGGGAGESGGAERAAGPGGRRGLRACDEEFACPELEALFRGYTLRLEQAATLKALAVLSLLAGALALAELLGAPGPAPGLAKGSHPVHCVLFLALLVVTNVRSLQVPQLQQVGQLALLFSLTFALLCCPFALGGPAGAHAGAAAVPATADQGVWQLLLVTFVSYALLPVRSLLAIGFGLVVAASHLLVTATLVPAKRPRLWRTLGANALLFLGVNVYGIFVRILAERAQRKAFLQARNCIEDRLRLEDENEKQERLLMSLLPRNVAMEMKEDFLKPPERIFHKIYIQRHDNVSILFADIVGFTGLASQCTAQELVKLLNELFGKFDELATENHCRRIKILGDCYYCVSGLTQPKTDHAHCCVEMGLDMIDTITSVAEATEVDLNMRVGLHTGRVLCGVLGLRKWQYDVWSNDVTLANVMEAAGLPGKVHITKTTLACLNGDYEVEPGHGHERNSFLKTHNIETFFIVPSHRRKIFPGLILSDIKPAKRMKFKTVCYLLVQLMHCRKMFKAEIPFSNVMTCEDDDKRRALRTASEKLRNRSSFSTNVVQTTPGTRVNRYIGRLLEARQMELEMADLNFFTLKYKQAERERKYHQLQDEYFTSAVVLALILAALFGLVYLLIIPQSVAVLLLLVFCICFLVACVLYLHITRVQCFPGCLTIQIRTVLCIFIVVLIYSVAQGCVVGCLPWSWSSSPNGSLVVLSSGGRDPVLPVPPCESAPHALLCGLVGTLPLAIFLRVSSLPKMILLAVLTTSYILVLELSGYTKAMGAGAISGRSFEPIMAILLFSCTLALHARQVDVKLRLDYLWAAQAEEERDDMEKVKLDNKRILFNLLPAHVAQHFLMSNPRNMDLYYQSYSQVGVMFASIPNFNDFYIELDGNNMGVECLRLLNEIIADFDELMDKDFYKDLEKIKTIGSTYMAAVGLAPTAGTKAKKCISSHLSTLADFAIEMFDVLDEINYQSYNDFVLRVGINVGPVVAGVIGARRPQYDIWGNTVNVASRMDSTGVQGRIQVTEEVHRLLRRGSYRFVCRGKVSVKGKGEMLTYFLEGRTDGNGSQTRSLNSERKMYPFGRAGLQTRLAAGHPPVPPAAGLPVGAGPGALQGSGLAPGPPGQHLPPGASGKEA
T1 sequence (P26769 whole entry): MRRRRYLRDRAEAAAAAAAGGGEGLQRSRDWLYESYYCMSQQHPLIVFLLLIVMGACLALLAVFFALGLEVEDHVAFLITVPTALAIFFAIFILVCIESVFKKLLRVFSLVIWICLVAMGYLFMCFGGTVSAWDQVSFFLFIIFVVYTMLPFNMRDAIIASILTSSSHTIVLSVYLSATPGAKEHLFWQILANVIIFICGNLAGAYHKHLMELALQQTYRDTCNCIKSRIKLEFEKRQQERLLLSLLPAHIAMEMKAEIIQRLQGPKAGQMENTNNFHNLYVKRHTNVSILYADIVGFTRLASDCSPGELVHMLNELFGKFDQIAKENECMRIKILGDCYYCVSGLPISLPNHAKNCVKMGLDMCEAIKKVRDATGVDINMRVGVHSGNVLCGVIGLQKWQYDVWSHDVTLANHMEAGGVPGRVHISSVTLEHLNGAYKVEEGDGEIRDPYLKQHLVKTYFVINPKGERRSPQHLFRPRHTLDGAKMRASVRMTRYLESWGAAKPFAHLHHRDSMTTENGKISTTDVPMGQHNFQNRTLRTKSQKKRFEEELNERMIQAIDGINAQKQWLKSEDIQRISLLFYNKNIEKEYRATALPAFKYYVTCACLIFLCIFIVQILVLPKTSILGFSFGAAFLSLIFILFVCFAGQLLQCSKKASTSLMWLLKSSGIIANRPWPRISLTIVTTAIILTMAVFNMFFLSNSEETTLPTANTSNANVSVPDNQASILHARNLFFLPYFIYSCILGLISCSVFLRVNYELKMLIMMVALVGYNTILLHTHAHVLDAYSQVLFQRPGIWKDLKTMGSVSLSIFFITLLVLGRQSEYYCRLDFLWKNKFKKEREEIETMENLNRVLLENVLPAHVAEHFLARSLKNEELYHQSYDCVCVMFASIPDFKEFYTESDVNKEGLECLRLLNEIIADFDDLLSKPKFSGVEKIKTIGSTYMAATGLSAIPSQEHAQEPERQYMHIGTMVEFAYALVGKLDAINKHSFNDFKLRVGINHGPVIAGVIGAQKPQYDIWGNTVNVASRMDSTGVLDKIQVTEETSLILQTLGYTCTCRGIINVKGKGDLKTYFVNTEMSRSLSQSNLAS

Nc1ncc2c(n1)CC(c1ccco1)CC2=O (stereo not drawn) [NKY80, 2-amino-7-(2-furanyl)-7,8-dihydro-5(6H)-quinazolinone]
IC50 [1]: 1110 µM | IC50 [2]: 81.1 µM | IC50 [3]: 330 µM

C=C[C@@]1(C)CC(=O)[C@]2(O)[C@@]3(C)[C@@H](O)CCC(C)(C)[C@@H]3[C@H](O)[C@H](OC(C)=O)[C@@]2(C)O1 [Forskolin]
EC50 [4]: 2.3 µM | EC50 [5]: 13.4 µM | EC50 [6]: 5.8 µM

Nc1ncnc2c1ncn2[C@@H]1O[C@H](CO)[C@@H](O)[C@@H]1O [vidarabine, 9-β-D-arabinosyladenine]
IC50 [1]: 545 µM | IC50 [2]: 20 µM | IC50 [3]: 138 µM

Nc1ncnc2c1ncn2C1CCCO1 (stereo not drawn) [SQ22,536, 9-(tetra-hydro-2-furanyl)-9H-purin-6-amine]
IC50 [1]: 381 µM | IC50 [2]: 9.5 µM | IC50 [3]: 110 µM
